Key:
PC-3Luc cells [1] = assay: WST-1 proliferation assay with hrCCL2 and anti-CCL2 antibodies; assay type: cell-based, human; conditions: 72 hours, antibodies 30 μg/mL
Experimental: Cells were seeded at a density of 1×10^5 cells/ml for PC-3Luc cells in a 96 well plate in RPMI+10% FBS (FCS is mentioned in previous section). Twenty-four hours after seeding, media was changed to either serum-free RPMI or RPMI+10% FBS. Cell growth was determined 72 hours later using the WST-1 assay (Pierce Biotech, Inc.) following the manufacturer's instructions.

PC-3Luc cells [2] = assay: Bioluminescent in vivo model of metastasis (Examples 1 and 2); design: species or system male SCID mice; conditions: Day 35; 2 mg/Kg twice weekly i.p. from Day 14
Experimental: Bioluminescent in vivo model of metastatsis—Bioluminescent imaging of PC-3^Luc was preformed as previously described through The University of Michigan Small Animal Imaging Resource facility (MSAIR) (Kalikin 2003). Briefly, PC-3Luc cells were introduced into male SCID mice (5-6 wks) by intracardiac injections. Mice were serially imaged weekly for 6 weeks using a CCD IVIS™ system using a 50 mm lens (Xenogen Corp, Alameda, Calif.) and the results were analyzed using […] software (Xenogen Corp.). Mice were separated into one of five groups; 1) PBS control, 2) anti-hIgG control human antibody, 3) anti-cVaM control mouse antibody, 4) anti-MCP1 (human), 5) anti-MCP1/JE (mouse). Treatment began at week 2 post-intracardiac injection and mice received 2 mg/Kg antibody twice weekly by intraperitoneal injection. Mice were injected with luciferin (40 mg/mL) intraperitoneally and ventral images were acquired 15 min post-injection under 1.75% isofluorane/air anesthesia. Total tumor burden of each animal was calculated using regions of interest (ROIs) that encompassed the entire animal. Animals were sacrificed after week 6 image and individual organs were harvested and immediately placed in formalin.

PC-3Luc cells [3] = assay: Bioluminescent in vivo model of metastasis (Example 4, antibodies and/or docetaxel); design: species or system male SCID mice
Experimental: Bioluminescent imaging of PC-3Luc was preformed as previously described through The University of Michigan Small Animal Imaging Resource facility (MSAIR) (Loberg et al., 2006. Neoplasia. 8:578-586). Briefly, PC-3Luc cells were introduced into male SCID mice (5-6 wks of age) by intracardiac injections. Mice were serially imaged weekly for up to 12 weeks using a CCD IVIS system using a 50 mm lens (Xenogen Corp, Alameda, Calif.) and the results were analyzed using LIVING IMAGE software (Xenogen Corp.). Mice were separated into groups and treatment began at week 2 post-intracardiac injection and mice received 2 mg/Kg antibody twice weekly by intraperitoneal (i.p.) injection (for up to eight weeks) and/or 40 mg/Kg Taxotere i.p. injection once per week for three weeks. Mice were injected with luciferin (40 mg/mL) intraperitoneally and ventral images were acquired 15 min postinjection under 1.75% isofluorane/air anesthesia. Total tumor burden of each animal was calculated using regions of interest (ROIs) that encompassed the entire animal. Animals were sacrificed after week 6 image and individual organs were harvested and immediately placed in formalin.

U937 premonocytic cells = assay: Macrophage migration assay (modified Boyden chamber); assay type: cell-based, human; conditions: VCaP conditioned media; pre-incubation 30 μg/mL
Experimental: […] Cells were harvested by 0.5 μM EDTA release and resuspended in serum free media at 5×10^4 cells/ml. 2.5×10^4 cells were added to the upper chamber of the transwell insert and incubated for 24 hours at 37° C. and 5% CO2 atmosphere. At the end of the incubation period, the cells were fixed with 4% formaldehyde in PBS for 5 minutes. Non-adherent cells were removed from inside the inserts with cotton-tipped swabs. Cells that had migrated to the underside of the insert were stained with 0.5% crystal violet for 5 minutes and rinsed thoroughly with tap water. Inserts were allowed to dry and the cells were counted using an inverted microscope.

VCaP xenografts = assay: VCaP subcutaneous xenograft model of tumorigenesis; assay type: in vivo, male SCID mice
Experimental: Xenograft tumors were established as previously described (Loberg et al., Urol Oncol 24 (2006) 161-168). Briefly, male SCID mice (5-6 weeks of age) were injected subcutaneously in the flank with 1×10^6 VCaP cells in 200 μL Matrigel (BD Biosciences, Inc.). Tumor volumes were calculated by caliper measurement performed weekly to monitor and track tumor growth (tumor volume=L×W×W×0.56). […] Mice were treated with 2 mg/Kg antibody twice weekly by intraperitoneal injection, beginning on Day 28 and for the remainder of the study.
Xenograft tumors were harvested and placed in fresh 10% formalin. Tumors were paraffin-embedded and 5 μm sections were cut and placed on glass slides. Hematoxylin and eosin stain was performed per the manufacturer's instructions (Sigma, Inc.). Identification of neovascularization was accomplished by labeling with an anti-CD31 antibody and macrophage infiltration was identified using an anti-CD68 antibody. Tissue sections were incubated for 10 minutes in citrate buffer, pH 6.0 and microwaved. Sections were incubated with anti-CD31 (DakoCytomation, Inc.; 1:50) or anti-CD68 (DaKoCytomation, Inc.; 1:1600) for 30 minutes and detected with LSAB+detection/DAB (3,3′-Diaminobenzidine; Sigma, Inc.) for 5 minutes. Slides were dipped in hematoxylin for 1 second as a counterstain.

PC-3 cells = assay: Transwell migration assay toward hrCCL2; assay type: cell-based, human; conditions: hrCCL2 100 ng/mL, 24 hours
Experimental: Increasing concentrations of CCL2 (1-100 ng/mL) or conditioned media was added to the lower chamber of a 24-well plate. Cells were harvested by EDTA release and resuspended in serum free media at 5×10^4 cells/ml. 2.5×10^4 cells were added to the upper chamber of the transwell insert and incubated for 24 hours at 37° C. and 5% CO^2 atmosphere. At the end of the incubation period, the cells were fixed with 4% formaldehyde in PBS for 5 minutes. Non-adherent cells were removed from inside the inserts with a cotton-tipped applicator. Cells which had migrated to the underside of the insert were stained with 0.5% crystal violet for 5 minutes and rinsed thoroughly with tap water. Inserts were allowed to dry and the cells were counted using an inverted microscope.

mouse CCL2/JE = mouse CCL2/JE (Mus musculus, UniProt P10148); assay: Cross-reactivity / neutralization; assay type: binding
Sequence of mouse CCL2/JE (P10148 24-148): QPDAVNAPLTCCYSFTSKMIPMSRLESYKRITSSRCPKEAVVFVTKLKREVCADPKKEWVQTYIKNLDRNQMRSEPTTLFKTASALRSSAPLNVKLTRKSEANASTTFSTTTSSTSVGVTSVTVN

With “CNTO888: human IgG1κ antibody that neutralizes human CCL2” the “cell viability (WST-1) as a measure of proliferation, mean ±SD” value (PC-3Luc cells [1]; CCL2 10 ng/mL) was 112.52±10.2, the “cell viability (WST-1) as a measure of proliferation, mean ±SD” value (PC-3Luc cells [1]; CCL2 100 ng/mL) was 132.93±17.08 and the “reduction in overall tumor burden compared to control antibody” value (PC-3Luc cells [2]) was 46.52%. For the same substance, the “reduction in overall tumor burden compared to control antibody” value (PC-3Luc cells [3]; Day 35, 2 mg/Kg twice weekly i.p. for three weeks from Day 14) was 46.52%, the “reduction in tibia-specific tumor burden” value (PC-3Luc cells [3]; Day 35, compared to control antibody) was 45.49% and the “animals of group counted at Wk 6 (tumor regression, Table 2)” value (PC-3Luc cells [3]; Wk 6 = First week after cessation of Taxotere) was 1 of 9. The “total tumor burden at Day 35” value (PC-3Luc cells [3]; antibodies 2 mg/Kg i.p. twice weekly, docetaxel 40 mg/Kg i.p.) was 52.78 % of PBS-treated animals, the “number of migrating U937 cells” value (U937 premonocytic cells) was 225±111 and the “attenuation of VCaP subcutaneous tumor growth” value (VCaP xenografts; 2 mg/Kg twice weekly i.p.) was 42.2%. The “reduction in tumor volume / tumor growth on Day 50 compared to control antibody” value (VCaP xenografts; 2 mg/Kg twice weekly i.p. from Day 28 for 3 weeks) was 42.2%, the “macrophage infiltration, CD68+ cells, mean ±SD” value (VCaP xenografts; VCaP xenograft, 2 mg/Kg twice weekly i.p.) was 9.00±7.94 cells per 100× objective field and the “angiogenesis by CD31 staining of xenograft tumors” value (VCaP xenografts; compared to isotype controls) was “decreased the amount of angiogenesis”. The “hrCCL2-induced migration, mean ±SD” value (PC-3 cells) was 217±29 and the “cross-reaction with or neutralization of mouse CCL2/JE” value (mouse CCL2/JE) was “do not cross-react with or neutralize”.

Reference: patent US20080118437A1, “Diagnosis and treatment O prostate cancer” (Regents of the University of Michigan, priority 2006, published 2008)
